Measured values: patent US3985764A, “Production of fused oxazoline azetidinones” (Queen's University, priority 1974, dated 1976)

System: S. lutea
Assay: antibacterial activity vs. S. lutea (plate assay)
Assay type: cell-based
Settings: versus S. lutea

## CC1(C)O[C@@H]2[C@H](N3C(=O)c4ccccc4C3=O)C(=O)N2[C@H]1C(=O)O [6-phthalimido oxapenicillin]
  antibacterial activity relative to phthalimidopenicillin: one-tenth the level of phthalimidopenicillin
